Reference: PubChem BioAssay (NCI)
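Cells were grown in 96-well plates and exposed to each compound for 48 hours at five concentrations; endpoints were interpolated linearly between bracketing concentrations, or set to the highest concentration if not reached. GI50: concentration for 50% inhibition of growth. The concentration for full growth arrest is given as TGI.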

Tests used:
Experiment in all cases: growth of human tumour cells (NCI), 48 h; in the data active = GI50 below about 0.43 µM; inactive = the rest
NCI-H23 lung = tested on: NCI-H23 lung
UACC-62 melanoma = tested on: UACC-62 melanoma
RPMI-8226 leukemia = tested on: RPMI-8226 leukemia
SK-MEL-2 melanoma = tested on: SK-MEL-2 melanoma
KM12 colon = tested on: KM12 colon
HL-60(TB) leukemia = tested on: HL-60(TB) leukemia
MALME-3M melanoma = tested on: MALME-3M melanoma
K-562 leukemia = tested on: K-562 leukemia
HCT-15 colon = tested on: HCT-15 colon
HCT-116 colon = tested on: HCT-116 colon
RXF 393 renal = tested on: RXF 393 renal
SK-OV-3 ovarian = tested on: SK-OV-3 ovarian
EKVX NSCLC = tested on: EKVX NSCLC
MOLT-4 leukemia = tested on: MOLT-4 leukemia
SN12C renal = tested on: SN12C renal
NCI-H460 lung = tested on: NCI-H460 lung
BT-549 breast = tested on: BT-549 breast
MDA-MB-435 = tested on: MDA-MB-435
A549 NSCLC = tested on: A549 NSCLC
T-47D breast = tested on: T-47D breast
HT29 colon = tested on: HT29 colon
M14 melanoma = tested on: M14 melanoma
DU-145 prostate = tested on: DU-145 prostate
PC-3 prostate = tested on: PC-3 prostate
SF-539 CNS = tested on: SF-539 CNS
NCI/ADR-RES ovarian = tested on: NCI/ADR-RES ovarian
HOP-62 NSCLC = tested on: HOP-62 NSCLC
OVCAR-4 ovarian = tested on: OVCAR-4 ovarian

CSc1nc(N)c2c(n1)NC(c1ccccc1)C1CCc3ccccc3C1=N2 (stereo not given)
> 100 µM: TGI (NCI-H23 lung) | TGI (UACC-62 melanoma) | TGI (RPMI-8226 leukemia) | TGI (KM12 colon) | TGI (HL-60(TB) leukemia) | TGI (MALME-3M melanoma) | TGI (K-562 leukemia) | TGI (HCT-15 colon) | TGI (HCT-116 colon) | TGI (RXF 393 renal) | TGI (SK-OV-3 ovarian) | TGI (EKVX NSCLC) | TGI (SN12C renal) | TGI (NCI-H460 lung) | TGI (BT-549 breast) | TGI (MDA-MB-435) | TGI (A549 NSCLC) | TGI (HT29 colon) | TGI (M14 melanoma) | TGI (DU-145 prostate) | TGI (PC-3 prostate) | TGI (SF-539 CNS) | TGI (NCI/ADR-RES ovarian) | TGI (HOP-62 NSCLC) | TGI (OVCAR-4 ovarian)
8.54 µM: TGI (SK-MEL-2 melanoma)
inactive: GI50 (UACC-62 melanoma) 6.01 µM | GI50 (RPMI-8226 leukemia) 5.72 µM | GI50 (SK-MEL-2 melanoma) 4.13 µM | GI50 (KM12 colon) 6.52 µM | GI50 (HL-60(TB) leukemia) 4 µM | GI50 (MALME-3M melanoma) > 100 µM | GI50 (K-562 leukemia) 4.12 µM | GI50 (HCT-15 colon) 7.61 µM | GI50 (HCT-116 colon) 7.39 µM | GI50 (RXF 393 renal) 4.71 µM | GI50 (SK-OV-3 ovarian) > 100 µM | GI50 (EKVX NSCLC) 7 µM | GI50 (MOLT-4 leukemia) 1.85 µM | GI50 (SN12C renal) 30.9 µM | GI50 (NCI-H460 lung) 8.29 µM | GI50 (BT-549 breast) > 100 µM | GI50 (MDA-MB-435) 55.5 µM | GI50 (A549 NSCLC) > 100 µM | GI50 (T-47D breast) 2.27 µM | GI50 (HT29 colon) 7.63 µM | GI50 (M14 melanoma) 11.9 µM | GI50 (DU-145 prostate) > 100 µM | GI50 (PC-3 prostate) 2.56 µM | GI50 (SF-539 CNS) > 100 µM | GI50 (NCI/ADR-RES ovarian) 5.58 µM | GI50 (HOP-62 NSCLC) > 100 µM | GI50 (OVCAR-4 ovarian) 4.38 µM
38.8 µM: TGI (MOLT-4 leukemia)
15.7 µM: TGI (T-47D breast)
